Measured values taken from patent US12048783B2, “2,4-disubstituted pyridines as malodor counteracting ingredients” (FIRMENICH SA, priority 2017, dated 2024).

Target: T1, OR4S2 (Homo sapiens, UniProt Q8NH73)
T1 construct: expressed in transfected cells
T1 sequence (Q8NH73 1-311): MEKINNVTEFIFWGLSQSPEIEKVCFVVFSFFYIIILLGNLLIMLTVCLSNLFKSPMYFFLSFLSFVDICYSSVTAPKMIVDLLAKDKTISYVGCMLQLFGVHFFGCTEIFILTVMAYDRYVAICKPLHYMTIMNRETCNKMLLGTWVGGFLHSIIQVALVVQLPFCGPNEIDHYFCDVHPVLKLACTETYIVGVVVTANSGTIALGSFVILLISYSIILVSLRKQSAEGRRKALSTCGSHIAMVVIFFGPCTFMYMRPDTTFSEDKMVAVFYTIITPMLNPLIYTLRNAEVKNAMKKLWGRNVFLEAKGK
Test: Inhibition of malodor compound induced olfactory receptor activity in stable cell lines
Type: cell-based
Details: inhibition of OR4S2 activity in presence of a single activating concentration of DMTS

`CCCCCc1cc(C)ccn1` was tested, and the EC50 was 90.3 µM.
